Columns and labels:
[1] = molecular target: GABA-B (Homo sapiens, UniProt Q9UBS5); test: Receptor profile, GABA-B; type: biochemical
[2] = system: GABA-C; test: Receptor profile, GABA-C; type: biochemical

GABA-B, sequence (Q9UBS5 15-961 limits assumed): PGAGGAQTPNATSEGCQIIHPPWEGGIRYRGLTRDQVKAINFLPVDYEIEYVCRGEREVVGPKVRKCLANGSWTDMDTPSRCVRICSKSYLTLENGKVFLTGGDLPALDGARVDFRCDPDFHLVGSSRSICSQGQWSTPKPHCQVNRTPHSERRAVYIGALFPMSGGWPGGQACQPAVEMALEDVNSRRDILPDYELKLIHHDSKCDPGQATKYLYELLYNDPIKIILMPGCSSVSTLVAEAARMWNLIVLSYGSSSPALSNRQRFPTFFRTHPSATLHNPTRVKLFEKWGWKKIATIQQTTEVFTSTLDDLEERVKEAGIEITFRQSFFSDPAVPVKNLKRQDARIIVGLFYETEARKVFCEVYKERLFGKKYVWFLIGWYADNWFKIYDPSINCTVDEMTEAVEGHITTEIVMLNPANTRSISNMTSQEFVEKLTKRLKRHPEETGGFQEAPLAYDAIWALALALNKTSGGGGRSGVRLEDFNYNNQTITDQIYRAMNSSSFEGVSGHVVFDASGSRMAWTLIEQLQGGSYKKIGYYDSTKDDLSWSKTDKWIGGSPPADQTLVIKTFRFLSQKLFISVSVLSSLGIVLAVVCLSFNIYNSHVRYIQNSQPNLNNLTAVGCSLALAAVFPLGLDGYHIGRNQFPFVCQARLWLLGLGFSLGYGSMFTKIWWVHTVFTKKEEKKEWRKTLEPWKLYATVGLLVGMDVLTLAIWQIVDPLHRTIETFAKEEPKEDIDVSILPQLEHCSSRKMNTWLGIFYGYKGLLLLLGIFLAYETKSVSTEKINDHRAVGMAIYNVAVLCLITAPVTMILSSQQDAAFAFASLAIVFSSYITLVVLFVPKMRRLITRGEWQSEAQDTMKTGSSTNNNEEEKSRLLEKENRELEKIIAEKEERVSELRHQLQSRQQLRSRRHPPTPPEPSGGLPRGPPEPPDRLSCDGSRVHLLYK
GABA-B, sequence (O75899 42-941 partner): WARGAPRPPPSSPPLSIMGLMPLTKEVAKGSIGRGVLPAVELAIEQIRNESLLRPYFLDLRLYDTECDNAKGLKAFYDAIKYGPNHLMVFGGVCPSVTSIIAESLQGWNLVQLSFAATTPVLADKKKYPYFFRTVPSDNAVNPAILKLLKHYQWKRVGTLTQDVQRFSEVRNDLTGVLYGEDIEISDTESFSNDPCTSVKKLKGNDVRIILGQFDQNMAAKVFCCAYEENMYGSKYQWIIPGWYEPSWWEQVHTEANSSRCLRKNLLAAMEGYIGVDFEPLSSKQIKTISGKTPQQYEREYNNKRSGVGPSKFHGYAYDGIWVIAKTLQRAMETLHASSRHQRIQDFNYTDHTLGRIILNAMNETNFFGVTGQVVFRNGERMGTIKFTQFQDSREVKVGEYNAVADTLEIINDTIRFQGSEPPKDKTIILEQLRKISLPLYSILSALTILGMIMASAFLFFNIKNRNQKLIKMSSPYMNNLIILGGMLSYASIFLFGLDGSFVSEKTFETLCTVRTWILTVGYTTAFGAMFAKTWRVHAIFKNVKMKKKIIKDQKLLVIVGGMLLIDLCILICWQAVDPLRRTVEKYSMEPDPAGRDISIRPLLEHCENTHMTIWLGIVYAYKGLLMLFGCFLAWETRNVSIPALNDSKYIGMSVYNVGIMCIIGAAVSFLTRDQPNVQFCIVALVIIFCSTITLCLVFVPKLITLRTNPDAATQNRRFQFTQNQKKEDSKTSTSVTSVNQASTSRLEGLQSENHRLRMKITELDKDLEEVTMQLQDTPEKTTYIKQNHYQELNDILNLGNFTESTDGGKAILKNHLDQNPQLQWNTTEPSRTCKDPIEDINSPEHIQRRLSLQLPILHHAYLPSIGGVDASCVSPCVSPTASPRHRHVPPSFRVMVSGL

CP(=O)(O)C1=CCNCC1 [TPMPA]
GABA-B mode of action (agonist/antagonist) [1]: agonist
GABA-C mode of action (agonist/antagonist) [2]: antagonist
